For 33 molecules, Ki results are on record in US8901313B2, “6,5-heterocyclic propargylic alcohol compounds and uses therefor” (Genentech, Inc., priority 2011, dated 2014).

T1 sequence (Q99558 whole entry): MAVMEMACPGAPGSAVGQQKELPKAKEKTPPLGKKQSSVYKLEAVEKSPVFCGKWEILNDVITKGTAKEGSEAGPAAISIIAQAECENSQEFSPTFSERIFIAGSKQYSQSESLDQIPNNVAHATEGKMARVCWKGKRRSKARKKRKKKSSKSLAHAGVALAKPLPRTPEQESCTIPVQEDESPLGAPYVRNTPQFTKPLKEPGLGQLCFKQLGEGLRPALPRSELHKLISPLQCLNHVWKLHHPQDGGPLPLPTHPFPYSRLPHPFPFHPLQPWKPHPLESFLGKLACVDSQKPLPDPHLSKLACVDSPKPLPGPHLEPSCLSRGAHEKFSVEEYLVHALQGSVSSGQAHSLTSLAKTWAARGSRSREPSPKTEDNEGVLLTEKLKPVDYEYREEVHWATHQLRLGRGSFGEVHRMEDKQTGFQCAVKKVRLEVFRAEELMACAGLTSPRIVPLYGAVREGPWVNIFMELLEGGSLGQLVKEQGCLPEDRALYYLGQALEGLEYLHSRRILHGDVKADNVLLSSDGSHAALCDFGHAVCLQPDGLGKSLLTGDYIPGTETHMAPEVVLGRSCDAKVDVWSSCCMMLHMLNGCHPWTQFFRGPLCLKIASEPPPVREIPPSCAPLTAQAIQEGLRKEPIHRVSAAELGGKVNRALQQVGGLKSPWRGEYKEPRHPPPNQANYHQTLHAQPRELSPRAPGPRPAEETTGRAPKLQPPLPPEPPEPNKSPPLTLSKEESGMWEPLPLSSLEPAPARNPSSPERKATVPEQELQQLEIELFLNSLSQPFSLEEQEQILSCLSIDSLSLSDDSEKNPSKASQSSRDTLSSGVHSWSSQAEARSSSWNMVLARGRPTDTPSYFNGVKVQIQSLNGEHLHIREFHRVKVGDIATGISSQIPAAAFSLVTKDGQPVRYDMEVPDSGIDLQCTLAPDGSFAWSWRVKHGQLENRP

This experiment concerns the target T1, nuclear factor-kappa B (NF-kB)-inducing kinase (NIK) (Homo sapiens, UniProt Q99558).
T1 construct: made in house; host or cells: baculovirus-infected insect cells
In words: NIK Enzyme Inhibition Assay (Transcreener ADP assay). The note with it: purified NIK 0.2-1 nM, 10 uM ATP, fluorescence polarization, Morrison's quadratic equation; read-out: inhibitory value (Ki) for NIK. The format is biochemical. (In fluorescence polarisation assays a small probe gives low polarisation when free and higher when bound to something large.)
In the case of `Cc1nn(-c2ccnc(N)n2)c2cc(C#CC(C)(O)C(=O)N3CC(O)C3)ccc12` (stereo not drawn) [Example T1.1-102, 4-[1-(2-aminopyrimidin-4-yl)-3-methyl-indazol-6-yl]-2-hydroxy-1-(3-hydroxyazetidin-1-yl)-2-methyl-but-3-yn-1-one], the inhibitory constant (Ki) is 310 nM. For `COCCOc1nc2ccc(C#C[C@@](C)(O)c3cc(C)on3)cc2n1-c1ccnc(N)n1` [Example T1.1-44, (2R)-4-[3-(2-aminopyrimidin-4-yl)-2-(2-methoxyethoxy)benzimidazol-5-yl]-2-(5-methylisoxazol-3-yl)but-3-yn-2-ol] the value was 3 nM; for `Cc1nn(-c2ccnc(N)n2)c2cc(C#CC(C)(O)c3cc(CF)on3)ccc12` (stereo not drawn) [Example T1.1-19, 4-[1-(2-aminopyrimidin-4-yl)-3-methyl-indazol-6-yl]-2-[5-(fluoromethyl)isoxazol-3-yl]but-3-yn-2-ol], 1 nM; for `Cc1nc(C(C)(O)C#Cc2ccc3c(CC(C)(O)C(F)F)nn(-c4ccnc(N)n4)c3c2)no1` (stereo not drawn) [Example T1.1-36, 3-[1-(2-aminopyrimidin-4-yl)-6-[3-hydroxy-3-(5-methyl-1,2,4-oxadiazol-3-yl)but-1-ynyl]indazol-3-yl]-1,1-difluoro-2-methyl-propan-2-ol], 2 nM.

`Cc1cc(-n2nc(C)c3ccc(C#CC(C)(O)c4ncccn4)cc32)nc(N)n1` (stereo not drawn) [Example T1.1-94, 4-[1-(2-amino-6-methyl-pyrimidin-4-yl)-3-methyl-indazol-6-yl]-2-pyrimidin-2-yl-but-3-yn-2-ol]: the Ki came out at 85 nM. With `Cn1c(=O)n(-c2ccnc(N)n2)c2cc(C#CC3(O)CCn4ccnc43)ccc21` (stereo not drawn) [Example T1.1-22, 3-(2-aminopyrimidin-4-yl)-5-[2-(7-hydroxy-5,6-dihydropyrrolo[1,2-a]imidazol-7-yl)ethynyl]-1-methyl-benzimidazol-2-one] the figure was 1 nM. For `CC(C)(O)c1nn(-c2ccnc(N)n2)c2cc(C#CC(C)(O)c3ccccn3)ccc12` (stereo not drawn) [Example T1.1-56, 4-[1-(2-aminopyrimidin-4-yl)-3-(1-hydroxy-1-methyl-ethyl)indazol-6-yl]-2-(2-pyridyl)but-3-yn-2-ol] the value was 4 nM; for `CC(C)(O)C#Cc1ccc2cnn(-c3nc(N)ncc3-c3cn[nH]c3)c2c1` [Example T1.1-92, 4-[1-[2-amino-5-(1H-pyrazol-4-yl)pyrimidin-4-yl]indazol-6-yl]-2-methyl-but-3-yn-2-ol], 70 nM; for `COCCOc1nc2ccc(C#C[C@@](C)(O)c3noc(C)n3)cc2n1-c1ccnc(N)n1` [Example T1.1-51, (2R)-4-[3-(2-aminopyrimidin-4-yl)-2-(2-methoxyethoxy)benzimidazol-5-yl]-2-(5-methyl-1,2,4-oxadiazol-3-yl)but-3-yn-2-ol], 4 nM.

`CC(O)(C#Cc1ccc2c(C(=O)N3CCOCC3)nn(-c3ccnc(N)n3)c2c1)c1ncccn1` (stereo not drawn) [Example T1.1-130, [1-(2-aminopyrimidin-4-yl)-6-(3-hydroxy-3-pyrimidin-2-yl-but-1-ynyl)indazol-3-yl]-morpholino-methanone]: the Ki is not below 5000 nM. With `CC(O)(C#Cc1ccc2nc(OCCO)n(-c3ccnc(N)n3)c2c1)c1ccc(F)cn1` (stereo not drawn) [Example T1.1-108, 4-[3-(2-aminopyrimidin-4-yl)-2-(2-hydroxyethoxy)benzimidazol-5-yl]-2-(5-fluoro-2-pyridyl)but-3-yn-2-ol] the figure was 1600 nM; with `CC(O)(C#Cc1ccc2c(CF)nn(-c3ccnc(N)n3)c2c1)c1ncccn1` (stereo not drawn) [Example T1.1-49, 4-[1-(2-aminopyrimidin-4-yl)-3-(fluoromethyl)indazol-6-yl]-2-pyrimidin-2-yl-but-3-yn-2-ol], 4 nM. With `Cc1cc(C(C)(O)C#Cc2ccc3nc(OCC4COC(C)(C)O4)n(-c4ccnc(N)n4)c3c2)no1` (stereo not drawn) [Example T1.1-70, 4-[3-(2-aminopyrimidin-4-yl)-2-[(2,2-dimethyl-1,3-dioxolan-4-yl)methoxy]benzimidazol-5-yl]-2-(5-methylisoxazol-3-yl)but-3-yn-2-ol], the Ki was 9 nM.

With `Cc1cc([C@](C)(O)C#Cc2ccc3c(CO)nn(-c4ccnc(N)n4)c3c2)no1` [Example T1.1-4, (2R)-4-[1-(2-aminopyrimidin-4-yl)-3-(hydroxymethyl)indazol-6-yl]-2-(5-methyl-isoxazol-3-yl)but-3-yn-2-ol], the Ki was 0.22 nM. With `CCOc1nc2ccc(C#CC3(O)CCn4ccnc43)cc2n1-c1ccnc(N)n1` (stereo not drawn) [Example T1.1-28, 7-[2-[3-(2-aminopyrimidin-4-yl)-2-ethoxy-benzimidazol-5-yl]ethynyl]-5,6-dihydropyrrolo[1,2-a]imidazol-7-ol] the figure was 2 nM. Consider `CC(O)(C#Cc1ccc2[nH]c(=O)n(-c3ccnc(N)n3)c2c1)c1cc(CO)on1` (stereo not drawn) [Example T1.1-21, 3-(2-aminopyrimidin-4-yl)-5-[3-hydroxy-3-[5-(hydroxymethyl)isoxazol-3-yl]but-1-ynyl]-1H-benzimidazol-2-one], for which the Ki stood at 1 nM. For the molecule `CC(O)(C#Cc1ccc2c(C(=O)NCC#N)nn(-c3ccnc(N)n3)c2c1)c1ncccn1` (stereo not drawn) [Example T1.134, 1-(2-aminopyrimidin-4-yl)-N-(cyanomethyl)-6-(3-hydroxy-3-pyrimidin-2-yl-but-1-ynyl) indazole-3-carboxamide], the Ki was 2 nM. For `Cc1cc(C(C)(O)C#Cc2ccc3c(C(O)(C4CCOCC4)C4CC4)nn(-c4ccnc(N)n4)c3c2)no1` (stereo not drawn) [Example T1.1-59, 4-[1-(2-aminopyrimidin-4-yl)-3-(cyclopropyl-hydroxy-tetrahydropyran-4-yl-methyl)indazol-6-yl]-2-(5-methyl-isoxazol-3-yl)but-3-yn-2-ol] the value was 5 nM.

As for `Cc1cc([C@](C)(O)C#Cc2ccc3c(c2)n(-c2ccnc(N)n2)c(=O)n3C)no1` [Example T1.1-10, 3-(2-aminopyrimidin-4-yl)-5-[(3R)-3-hydroxy-3-(5-methylisoxazol-3-yl)but-1-ynyl]-1-methyl-benzimidazol-2-one], the Ki came out at 0.5 nM. With `Cc1nc([C@](C)(O)C#Cc2ccc3c(C(C)(C)O)nn(-c4ccnc(N)n4)c3c2)no1` [Example T1.1-7, (2R)-4-[1-(2-aminopyrimidin-4-yl)-3-(1-hydroxy-1-methyl-ethyl)indazol-6-yl]-2-(5-methyl-1,2,4-oxadiazol-3-yl) but-3-yn-2-ol] the figure was 0.4 nM; with `CCOc1nc2ccc(C#CC(C)(O)c3cc(CO)on3)cc2n1-c1ccnc(N)n1` (stereo not drawn) [Example T1.1-17, 4-[3-(2-aminopyrimidin-4-yl)-2-ethoxy-benzimidazol-5-yl]-2-[5-(hydroxymethyl)isoxdazol-3-yl]but-3-yn-2-ol], 1 nM. For `N#Cc1ccc2cnn(-c3nc(N)ncc3[N+](=O)[O-])c2c1` [Example T1-8, 1-(2-amino-5-nitropyrimidin-4-yl)-1H-indazole-6-carbonitrile] the value was 411 nM.

Consider `Cc1nc2ccc(C#C[C@@](C)(O)c3nccs3)cc2n1-c1ncnc(N)n1` [Example T1.1-2, (2R)-4-[3-(4-amino-1,3,5-triazin-2-yl)-2-methyl-benzimidazol-5-yl]-2-thiazol-2-yl-but-3-yn-2-ol], for which the inhibition constant (Ki) is 0.2 nM.

Consider `Cc1cc(C(C)(O)C#Cc2ccc3nc(OC4CN(CCO)C4)n(-c4ccnc(N)n4)c3c2)no1` (stereo not drawn) [Example T1.1-97, 4-[3-(2-aminopyrimidin-4-yl)-2-[1-(2-hydroxyethyl)azetidin-3-yl]oxy-benzimidazol-5-yl]-2-(5-methyl-isoxazol-3-yl)but-3-yn-2-ol], for which the inhibitory constant (Ki) was found to be 102 nM. With `COc1ncccc1Nc1ncnc(-n2ncc3ccc(C#CC(C)(C)O)cc32)n1` [Example T1-24, 4-(1-(4-(2-methoxypyridin-3-ylamino)-1,3,5-triazin-2-yl)-1H-indazol-6-yl)-2-methylbut-3-yn-2-ol] the figure was 2100 nM; with `CC(O)(C#Cc1ccc2c(CO)nn(-c3ccnc(N)n3)c2c1)c1ncccn1` (stereo not drawn) [Example T1.1-61, 4-[1-(2-aminopyrimidin-4-yl)-3-(hydroxymethyl)indazol-6-yl]-2-pyrimidin-2-yl-but-3-yn-2-ol], 6 nM; with `Cc1cc(C(C)(O)C#Cc2ccc3c(C(NC4CCCC4)C4CC4)nn(-c4ccnc(N)n4)c3c2)no1` (stereo not drawn) [Example T1.1-85, 4-[1-(2-aminopyrimidin-4-yl)-3-[(cyclopentylamino)-cyclopropyl-methyl]indazol-6-yl]-2-(5-methyl-isoxazol-3-yl)but-3-yn-2-ol], 27 nM.

With `Cc1nn(-c2ccnc(N)n2)c2cc(C#CC3(O)CCN(C)CC3)ccc12` [Example T1-69, 4-((1-(2-aminopyrimidin-4-yl)-3-methyl-1H-indazol-6-yl)ethynyl)-1-methylpiperidin-4-ol], the inhibition constant (Ki) is not below 5000 nM. With `CN(C)C(=O)c1nn(-c2ccnc(N)n2)c2cc(C#CC(C)(O)c3ncccn3)ccc12` (stereo not drawn) [Example T1.1-64, 1-(2-aminopyrimidin-4-yl)-6-(3-hydroxy-3-pyrimidin-2-yl-but-1-ynyl)-N,N-dimethyl-indazole-3-carboxamide] the figure was 6 nM. For `Nc1nccc(-n2nc(C(=O)N3CCOCC3)c3ccc(C#CC(O)(CF)CF)cc32)n1` [Example T1.1-86, [1-(2-aminopyrimidin-4-yl)-6-[4-fluoro-3-(fluoromethyl)-3-hydroxy-but-1-ynyl]indazol-3-yl]-morpholino-methanone] the value was 31 nM. With `CC(C)(O)C#Cc1ccc2nc(C3CC3)n(-c3ccnc(N)n3)c2c1` [Example T1-17, 4-(1-(2-aminopyrimidin-4-yl)-2-cyclopropyl-1H-benzo[d]imidazol-6-yl)-2-methylbut-3-yn-2-ol] the figure was 2900 nM. Take `Cc1nc([C@](C)(O)C#Cc2ccc3c(C(C)(C)F)nn(-c4ccnc(N)n4)c3c2)no1` [Example T1.1-35, (2R)-4-[1-(2-aminopyrimidin-4-yl)-3-(1-fluoro-1-methyl-ethyl)indazol-6-yl]-2-(5-methyl-1,2,4-oxadiazol-3-yl) but-3-yn-2-ol]: the inhibition constant (Ki) was 2 nM. With `COCCN(C)C(=O)c1nn(-c2ccnc(N)n2)c2cc(C#CC(C)(O)c3ncccn3)ccc12` (stereo not drawn) [Example T1.1-138, 1-(2-aminopyrimidin-4-yl)-6-(3-hydroxy-3-pyrimidin-2-yl-but-1-ynyl)-N-(2-methoxyethyl)-N-methyl-indazole-3-carboxamide] the figure was 0.2 nM.

As a reminder, the Ki is a dissociation constant, usually derived from enzyme kinetics or from competition with a known ligand.
